# According to patent publication US20180244611A1, “Modulators of the Cystic Fibrosis Transmembrane Conductance Regulator Protein and Methods of Use” (AbbVie S.à.r.l., priority 2017, published 2018):
# Tests used:
# F508delCFTR [1] = target: T1, F508delCFTR (Homo sapiens, UniProt P13569, DEL508-508); assay: Cell Surface Expression-Horse Radish Peroxidase (CSE-HRP) assay, test compound without co-corrector; type: cell-based; conditions: for Emax: maximum at any tested concentration, normalized to positive control, without co-corrector; for EC50: test compound without co-corrector;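 on Emax: percent of on-plate 2 µM positive control corrector response over DMSO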
# T1 construct: expressed in transfected cells; host or cells: CFBE41o- human lung-derived epithelial cells (CFBE41o-F508delCFTR-HRP), doxycycline-inducible
# Procedure, shortened: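 CFBE41o- cells expressing F508delCFTR with HRP in the fourth exofacial loop, induced with 0.5 μg/mL doxycycline for 72 h at 37° C, then exposed to compound alone for 18-24 h at 33° C, 8-point 3-fold series from 20 μM. Surface HRP read by luminol luminescence, normalized to positive corrector control versus DMSO; EC50 from variable-slope sigmoidal fit of three replicate plates.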
# F508delCFTR [2] = target: T1, F508delCFTR; assay: Cell Surface Expression-Horse Radish Peroxidase (CSE-HRP) assay, test compound with co-corrector; type: cell-based; conditions: with 2 μM co-corrector; for Maximum % activity (with co-corrector): maximum at any tested concentration, normalized to positive control;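 on Maximum % activity (with co-corrector): percent of 2 µM positive control corrector over DMSO; co-corrector is that same compound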
# Procedure, shortened: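 CFBE41o- cells expressing F508delCFTR with HRP in the fourth exofacial loop, induced with 0.5 μg/mL doxycycline for 72 h, then treated 18-24 h at 33° C. with compound (8 points, top 20 μM, 3-fold) plus 2 μM co-corrector. Surface HRP read by luminol luminescence; activity normalised to positive control, EC50 from variable-slope sigmoidal fit.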
# T1 sequence (P13569 with tags, fused parts or gaps DEL508-508): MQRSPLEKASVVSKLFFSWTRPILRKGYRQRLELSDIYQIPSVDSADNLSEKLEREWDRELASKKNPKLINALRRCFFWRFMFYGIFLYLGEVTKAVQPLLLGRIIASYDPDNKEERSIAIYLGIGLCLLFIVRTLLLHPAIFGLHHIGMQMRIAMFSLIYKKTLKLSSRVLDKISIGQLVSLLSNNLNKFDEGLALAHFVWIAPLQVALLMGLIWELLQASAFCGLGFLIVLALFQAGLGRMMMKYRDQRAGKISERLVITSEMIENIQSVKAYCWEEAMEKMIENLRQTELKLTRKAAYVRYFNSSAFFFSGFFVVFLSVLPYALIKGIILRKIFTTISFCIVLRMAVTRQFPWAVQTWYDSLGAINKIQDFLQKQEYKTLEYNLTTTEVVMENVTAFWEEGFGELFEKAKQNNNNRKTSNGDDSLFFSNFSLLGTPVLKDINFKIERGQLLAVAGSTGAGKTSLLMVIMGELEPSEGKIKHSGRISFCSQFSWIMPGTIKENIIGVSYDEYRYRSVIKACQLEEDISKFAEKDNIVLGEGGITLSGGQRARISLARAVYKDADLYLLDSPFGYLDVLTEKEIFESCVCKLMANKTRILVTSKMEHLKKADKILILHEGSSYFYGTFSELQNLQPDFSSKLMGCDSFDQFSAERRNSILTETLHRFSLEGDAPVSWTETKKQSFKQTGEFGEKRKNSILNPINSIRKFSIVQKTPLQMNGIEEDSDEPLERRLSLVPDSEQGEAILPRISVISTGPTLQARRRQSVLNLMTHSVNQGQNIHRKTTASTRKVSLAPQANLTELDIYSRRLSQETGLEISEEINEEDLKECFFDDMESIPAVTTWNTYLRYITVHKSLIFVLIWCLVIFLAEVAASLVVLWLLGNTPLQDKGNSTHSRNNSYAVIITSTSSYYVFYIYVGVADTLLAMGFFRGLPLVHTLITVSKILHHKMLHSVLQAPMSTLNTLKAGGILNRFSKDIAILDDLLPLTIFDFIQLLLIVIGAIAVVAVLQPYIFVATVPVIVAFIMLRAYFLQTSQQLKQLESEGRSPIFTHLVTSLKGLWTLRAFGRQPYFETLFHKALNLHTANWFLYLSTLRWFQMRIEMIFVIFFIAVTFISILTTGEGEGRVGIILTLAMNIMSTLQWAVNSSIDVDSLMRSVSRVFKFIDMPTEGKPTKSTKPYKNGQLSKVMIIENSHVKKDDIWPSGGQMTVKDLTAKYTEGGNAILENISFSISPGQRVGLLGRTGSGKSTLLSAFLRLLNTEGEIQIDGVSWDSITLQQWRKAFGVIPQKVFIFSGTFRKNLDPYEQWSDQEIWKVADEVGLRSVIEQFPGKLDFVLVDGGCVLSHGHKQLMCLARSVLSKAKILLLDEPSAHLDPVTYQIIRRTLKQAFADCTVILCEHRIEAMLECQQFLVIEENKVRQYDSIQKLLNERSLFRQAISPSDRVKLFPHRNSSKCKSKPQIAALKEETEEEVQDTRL
Compound,Emax (F508delCFTR [1]) [%],EC50 (F508delCFTR [1]) [µM],Maximum % activity (with co-corrector) (F508delCFTR [2]),EC50 (F508delCFTR [2]) [µM]
"COc1ccc(C2CCC2)c2c1[C@@H](C(=O)NS(=O)(=O)c1cccc3nc(C)ccc13)CC2 [Example I-127, (1S)-4-cyclobutyl-7-methoxy-N-(2-methylquinoline-5-sulfonyl)-2,3-dihydro-1H-indene-1-carboxamide]",≥ 150,3 to 10,+++ (≥350),< 3
"COc1ccc(C2CCC2)c2c1[C@H](C(=O)NS(=O)(=O)c1cccc3nc(C)ccc13)CC2 [Example I-128, (1R)-4-cyclobutyl-7-methoxy-N-(2-methylquinoline-5-sulfonyl)-2,3-dihydro-1H-indene-1-carboxamide]",≥ 150,3 to 10,+++ (≥350),< 3
"COc1ccc(C2CCC2)c2c1[C@H](C(=O)NS(=O)(=O)c1cccc3c1CCCN3)CC2 [Example I-129, (1R)-4-cyclobutyl-7-methoxy-N-(1,2,3,4-tetrahydroquinoline-5-sulfonyl)-2,3-dihydro-1H-indene-1-carboxamide]",≥ 150,< 3,+++ (≥350),< 3
"COc1ccc(C2CCC2)c2c1C(C(=O)NS(=O)(=O)c1cccc3cnn(C)c13)C2 (stereo not shown) [Example I-132, 2-cyclobutyl-5-methoxy-N-(1-methyl-1H-indazole-7-sulfonyl)bicyclo[4.2.0]octa-1,3,5-triene-7-carboxamide]",≥ 150,< 3,+++ (≥350),< 3
"COc1ccc(C2CCC2)c2c1C(C(=O)NS(=O)(=O)c1cccc3ncn(C)c13)CC2 (stereo not shown) [Example I-133, 4-cyclobutyl-7-methoxy-N-(1-methyl-1H-benzimidazole-7-sulfonyl)-2,3-dihydro-1H-indene-1-carboxamide]",≥ 150,< 3,+++ (≥350),< 3
"COc1ccc(C2CCC2)c2c1C(C(=O)NS(=O)(=O)c1cccn3nccc13)CC2 (stereo not shown) [Example I-135, 4-cyclobutyl-7-methoxy-N-(pyrazolo[1,5-a]pyridine-4-sulfonyl)-2,3-dihydro-1H-indene-1-carboxamide]",≥ 150,3 to 10,+++ (≥350),< 3
"COc1ccc(C2CCC2)c2c1C(C(=O)NS(=O)(=O)c1cccn3nccc13)C2 (stereo not shown) [Example I-136, 2-cyclobutyl-5-methoxy-N-(pyrazolo[1,5-a]pyridine-4-sulfonyl)bicyclo[4.2.0]octa-1,3,5-triene-7-carboxamide]",≥ 150,< 3,+++ (≥350),< 3
"COc1ccc(C2CCCO2)c2c1C(C(=O)NS(=O)(=O)c1cccc3ccccc13)CC2 (stereo not shown) [Example I-138, 7-methoxy-N-(naphthalene-1-sulfonyl)-4-(oxolan-2-yl)-2,3-dihydro-1H-indene-1-carboxamide]",≥ 150,3 to 10,+++ (≥350),< 3
"COCc1ccc(OC)c2c1CCC2C(=O)NS(=O)(=O)c1cccc2ccccc12 (stereo not shown) [Example I-139, 7-methoxy-4-(methoxymethyl)-N-(naphthalene-1-sulfonyl)-2,3-dihydro-1H-indene-1-carboxamide]",≥ 150,3 to 10,+++ (≥350),< 3
"COc1ccc(CC(C)C)c2c1C(C(=O)NS(=O)(=O)c1cccc3ncccc13)CC2 (stereo not shown) [Example I-140, 7-methoxy-4-(2-methylpropyl)-N-(quinoline-5-sulfonyl)-2,3-dihydro-1H-indene-1-carboxamide]",≥ 150,< 3,+++ (≥350),< 3
"COc1ccc(C2CCC2)c2c1[C@H](C(=O)NS(=O)(=O)c1cccc3cnn(C)c13)C2 [Example I-144, (7R)-2-cyclobutyl-5-methoxy-N-(1-methyl-1H-indazole-7-sulfonyl)bicyclo[4.2.0]octa-1,3,5-triene-7-carboxamide]",≥ 150,< 3,+++ (≥350),< 3
"COc1ccc(C2CCC2)c2c1[C@H](C(=O)NS(=O)(=O)c1cccc3c1CCCN3)C2 [Example I-146, (7R)-2-cyclobutyl-5-methoxy-N-(1,2,3,4-tetrahydroquinoline-5-sulfonyl)bicyclo[4.2.0]octa-1,3,5-triene-7-carboxamide]",≥ 150,< 3,+++ (≥350),< 3
"COc1cccc2c1C(C(=O)NS(=O)(=O)c1cccc3ccccc13)CC2(C)C (stereo not shown) [Example I-149, 7-methoxy-3,3-dimethyl-N-(naphthalene-1-sulfonyl)-2,3-dihydro-1H-indene-1-carboxamide]",≥ 150,< 3,+++ (≥350),< 3
"COc1ccc(C2CCC2)c2c1[C@H](C(=O)NS(=O)(=O)c1cccn3nccc13)CC2 [Example I-151, (1R)-4-cyclobutyl-7-methoxy-N-(pyrazolo[1,5-a]pyridine-4-sulfonyl)-2,3-dihydro-1H-indene-1-carboxamide]",≥ 150,3 to 10,+++ (≥350),< 3
"COc1cccc2c1C(C(=O)NS(=O)(=O)c1cccc3ncccc13)CC2(C)C (stereo not shown) [Example I-152, 7-methoxy-3,3-dimethyl-N-(quinoline-5-sulfonyl)-2,3-dihydro-1H-indene-1-carboxamide]",≥ 150,3 to 10,+++ (≥350),< 3
"COc1cccc2c1[C@@H](C(=O)NS(=O)(=O)c1cccc3ncccc13)CC2(C)C [Example I-153, (1S)-7-methoxy-3,3-dimethyl-N-(quinoline-5-sulfonyl)-2,3-dihydro-1H-indene-1-carboxamide]",≥ 150,3 to 10,+++ (≥350),< 3
"COc1cccc2c1[C@H](C(=O)NS(=O)(=O)c1cccc3ncccc13)CC2(C)C [Example I-154, (1R)-7-methoxy-3,3-dimethyl-N-(quinoline-5-sulfonyl)-2,3-dihydro-1H-indene-1-carboxamide]",≥ 150,3 to 10,+++ (≥350),< 3
"COc1ccc(C2CCC2)c2c1[C@H](C(=O)NS(=O)(=O)c1cccc3ncc(C)n13)C2 [Example I-155, (7R)-2-cyclobutyl-5-methoxy-N-(3-methylimidazo[1,2-a]pyridine-5-sulfonyl)bicyclo[4.2.0]octa-1,3,5-triene-7-carboxamide]",≥ 150,3 to 10,+++ (≥350),< 3
"Cc1ccccc1S(=O)(=O)NC(=O)C1CCc2c(Cl)cccc21 (stereo not shown) [Example II-3, 4-chloro-N-(2-methylbenzene-1-sulfonyl)-2,3-dihydro-1H-indene-1-carboxamide]",50 to 150,3 to 10,+++ (≥350),3 to 10
"Cc1ccccc1S(=O)(=O)NC(=O)C1CCc2c(-c3ccccc3)cccc21 (stereo not shown) [Example II-36, N-(2-methylbenzene-1-sulfonyl)-4-phenyl-2,3-dihydro-1H-indene-1-carboxamide]",50 to 150,3 to 10,+++ (≥350),3 to 10
"O=C(NS(=O)(=O)c1cccc2ccccc12)C1(CN2CCCC2)CCc2c(Cl)cccc21 (stereo not shown) [Example II-47, 4-chloro-N-(naphthalene-1-sulfonyl)-1-[(pyrrolidin-1-yl)methyl]-2,3-dihydro-1H-indene-1-carboxamide]",< 50,3 to 10,++ (≥150 and <350),3 to 10
"CCC1(C(=O)NS(=O)(=O)N2CCCc3ccccc32)CCc2c(Cl)cccc21 (stereo not shown) [Example II-80, 4-chloro-N-(3,4-dihydroquinoline-1(2H)-sulfonyl)-1-ethyl-2,3-dihydro-1H-indene-1-carboxamide]",< 50,≥ 10,+ (<150),≥ 10
"O=C(NS(=O)(=O)c1cccc2ccccc12)C1(CO)CCc2c(Cl)cccc21 (stereo not shown) [Example II-81, 4-chloro-1-(hydroxymethyl)-N-(naphthalene-1-sulfonyl)-2,3-dihydro-1H-indene-1-carboxamide]",50 to 150,3 to 10,+++ (≥350),< 3
"COc1cccc2c1C(C(=O)NS(=O)(=O)c1cccc3ccccc13)CCC2 (stereo not shown) [Example II-115, 8-methoxy-N-(naphthalene-1-sulfonyl)-1,2,3,4-tetrahydronaphthalene-1-carboxamide]",≥ 150,3 to 10,+++ (≥350),< 3
"O=C(NS(=O)(=O)c1cccc2ccccc12)C1CCCc2c(Cl)ccc(O)c21 (stereo not shown) [Example II-128, 5-chloro-8-hydroxy-N-(naphthalene-1-sulfonyl)-1,2,3,4-tetrahydronaphthalene-1-carboxamide]",50 to 150,3 to 10,+++ (≥350),3 to 10
